For 21 compounds, EC50 results are on record in US11820773B2, “Tricyclic compounds” (ALIGOS THERAPEUTICS, INC., priority 2020, dated 2023).

Where a name gives a salt, the structure may show the parent alone.

For one test, the system named is HBV. Briefly: HBV-DNA antiviral assay using HepG2.117 cells (intracellular HBV DNA by qPCR). It is filed as cell-based, genotype D HBV. Particulars: HBV DNA inhibition, 3 days incubation, 2% DMSO. Put shortly: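 Endpoints are intracellular HBV DNA by qPCR (interpolated from a gBlock standard curve) and ATP-based viability in duplicate plates. Doxycycline-free HepG2.117 Tet-off cells received compounds (9 concentrations, 4-fold steps, 2% DMSO) for 3 days. Inhibition normalised to DMSO wells; EC50/EC90/CC50 by curve fitting.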
In turn, `CNC(=O)c1ccc(-n2c(=O)c3c(n4ncc(CC5CC5)c24)CN(C(=O)c2ccc(Br)c(C(F)(F)F)c2)C(C)C3)cc1` (racemic) [Compound 21b, N-methyl-4-[rac-(11S)-12-[4-bromo-3-(trifluoromethyl)benzoyl]-5-(cyclopropylmethyl)-11-methyl-8-oxo-2,3,7,12-tetrazatricyclo[7.4.0.0^2,6]trideca-1(9),3,5-trien-7-yl]benzamide] showed an EC50 of 50 to 500 nM.

The same test, now with this note: Hepatitis B virus, 72 h, HBV DNA inhibition, 3 days incubation, 2% DMSO.
The compound `CNC(=O)c1cnc(-n2c(=O)c3c(n4ncc(Cc5ccccc5)c24)CN(C(=O)c2ccc(Br)c(C(F)(F)F)c2)[C@@H](C)C3)nc1` (stereo in doubt) [Compound 69b, N-methyl-2-[rac-(11S)-5-benzyl-12-[4-bromo-3-(trifluoromethyl)benzoyl]-11-methyl-8-oxo-2,3,7,12-tetrazatricyclo[7.4.0.0^2,6]trideca-1(9),3,5-trien-7-yl]pyrimidine-5-carboxamide] gave an EC50 of under 50 nM.

As for `CNC(=O)c1cnc(-n2c(=O)c3c(n4ncc(CC(C)C)c24)CN(C(=O)c2ccc(Br)c(C(F)(F)F)c2)[C@H](C)C3)nc1` (stereo in doubt) [Compound 85a, N-methyl-2-[rac-(11R)-12-[4-bromo-3-(trifluoromethyl)benzoyl]-5-isobutyl-11-methyl-8-oxo-2,3,7,12-tetrazatricyclo[7.4.0.0^2,6]trideca-1(9),3,5-trien-7-yl]pyrimidine-5-carboxamide], the concentration giving a half-maximal response (EC50) is under 50 nM.

Regarding `CNC(=O)c1cc(-n2c(=O)c3c(n4ncc(CC(C)C)c24)CN(C(=O)c2ccc(Br)c(C(F)(F)F)c2)[C@@H](C)C3)nn1C` (stereo in doubt) [Compound 77b, N,2-dimethyl-5-[rac-(11S)-12-[4-bromo-3-(trifluoromethyl)benzoyl]-5-isobutyl-11-methyl-8-oxo-2,3,7,12-tetrazatricyclo[7.4.0.0^2,6]trideca-1(9),3,5-trien-7-yl]pyrazole-3-carboxamide], the concentration for a half-maximal effect (EC50) is under 50 nM.

`CNC(=O)c1ccc(-n2c(=O)c3c(n4ncc(Cc5ccsc5)c24)CN(C(=O)c2ccc(Br)c(Cl)c2)CC3)cc1` [Compound 18, 4-[12-(4-bromo-3-chloro-benzoyl)-8-oxo-5-(3-thienylmethyl)-2,3,7,12-tetrazatricyclo[7.4.0.0^2,6]trideca-1(9),3,5-trien-7-yl]-N-methyl-benzamide]: the EC50 was under 50 nM.

`C[C@@H]1Cc2c(n3ncc(Cc4ccccc4)c3n(-c3ccc(-c4nnn[nH]4)cc3)c2=O)CN1C(=O)c1ccc(Br)c(C(F)(F)F)c1` (stereo in doubt) [Compound 71a, rac-(11R)-5-benzyl-12-[4-bromo-3-(trifluoromethyl)benzoyl]-11-methyl-7-[4-(1H-tetrazol-5-yl)phenyl]-2,3,7,12-tetrazatricyclo[7.4.0.0^2,6]trideca-1(9),3,5-trien-8-one]: the EC50 fell in the range of 500 to 5000 nM.

Take `Cc1ccn(-c2ccc(-n3c(=O)c4c(n5ncc(CC(C)C)c35)CN(C(=O)c3ccc(Br)c(C(F)(F)F)c3)[C@H](C)C4)cc2)n1` (stereo in doubt) [Compound 100a, rac-(11R)-12-[4-bromo-3-(trifluoromethyl)benzoyl]-5-isobutyl-11-methyl-7-[4-(3-methylpyrazol-1-yl)phenyl]-2,3,7,12-tetrazatricyclo[7.4.0.0^2,6]trideca-1(9),3,5-trien-8-one]: the half-maximal effective concentration (EC50) is under 50 nM.

For `C[C@H]1Cc2c(n3ncc(CC4CC4)c3n(-c3ccc(C(=O)N(C)COC(=O)CN)cc3)c2=O)CN1C(=O)c1ccc(Br)c(C(F)(F)F)c1` (racemic) [Compound 97, [methyl-[4-[rac-(11S)-12-[4-bromo-3-(trifluoromethyl)benzoyl]-5-(cyclopropylmethyl)-11-methyl-8-oxo-2,3,7,12-tetrazatricyclo[7.4.0.0^2,6]trideca-1(9),3,5-trien-7-yl]benzoyl]amino]methyl 2-aminoacetate], the concentration giving a half-maximal response (EC50) is over 5000 nM.

`C[C@@H]1Cc2c(n3ncc(Cc4ccccc4)c3n(-c3ccc(-n4nnnc4C(F)(F)F)cc3)c2=O)CN1C(=O)c1ccc(Br)c(C(F)(F)F)c1` [Compound 87, 5-benzyl-12-[4-bromo-3-(trifluoromethyl)benzoyl]-11-methyl-7-[4-[5-(trifluoromethyl)tetrazol-1-yl]phenyl]-2,3,7,12-tetrazatricyclo[7.4.0.0^2,6]trideca-1(9),3,5-trien-8-one]: the EC50 is 50 to 500 nM.

`CC(C)Cc1cnn2c3c(c(=O)n(-c4ccc(-c5nc(=O)on5C)cc4)c12)C[C@H](C)N(C(=O)c1ccc(Br)c(C(F)(F)F)c1)C3` (stereo in doubt) [Compound 94b, 2-methyl-3-[4-[rac-(11S)-12-[4-bromo-3-(trifluoromethyl)benzoyl]-5-isobutyl-11-methyl-8-oxo-2,3,7,12-tetrazatricyclo[7.4.0.0^2,6]trideca-1(9),3,5-trien-7-yl]phenyl]-1,2,4-oxadiazol-5-one] showed an EC50 of 50 to 500 nM.

`CC[C@@H]1Cc2c(n3ncc(Cc4ccccc4)c3n(-c3ccc4c(NC)n[nH]c4c3)c2=O)CN1C(=O)c1ccc(Br)c(C(F)(F)F)c1` (stereo in doubt) [Compound 84a, rac-(11R)-5-benzyl-12-[4-bromo-3-(trifluoromethyl)benzoyl]-11-ethyl-7-[3-(methylamino)-1H-indazol-6-yl]-2,3,7,12-tetrazatricyclo[7.4.0.0^2,6]trideca-1(9),3,5-trien-8-one]: the half-maximal effective concentration (EC50) was under 50 nM.

`CN1Cc2cc(-n3c(=O)c4c(n5ncc(Cc6ccccc6)c35)CN(C(=O)c3ccc(Br)c(Cl)c3)CC4)ccc2C1=O` [Compound 15, 5-benzyl-12-(4-bromo-3-chloro-benzoyl)-7-(2-methyl-1-oxo-isoindolin-5-yl)-2,3,7,12-tetrazatricyclo[7.4.0.0^2,6]trideca-1(9),3,5-trien-8-one]: the EC50 is under 50 nM.

For the compound `CC(C)[C@@H](N)C(=O)OCN(C)C(=O)c1ccc(-n2c(=O)c3c(n4ncc(CC5CC5)c24)CN(C(=O)c2ccc(Br)c(C(F)(F)F)c2)[C@@H](C)C3)cc1` (racemic) [Compound 96, [[4-[(11SR)-12-[4-bromo-3-(trifluoromethyl)benzoyl]-5-(cyclopropylmethyl)-11-methyl-8-oxo-2,3,7,12-tetrazatricyclo[7.4.0.0^2,6]trideca-1(9),3,5-trien-7-yl]benzoyl]-methyl-amino]methyl (2R)-2-amino-3-methyl-butanoate; hydrochloride], the concentration giving a half-maximal response (EC50) lay in the range of 500 to 5000 nM.

`CNC(=O)c1cnc(-n2c(=O)c3c(n4ncc(Cc5ccccc5)c24)CN(C(=O)c2ccc(Br)c(C(F)(F)F)c2)[C@H](C)C3)cn1` (stereo in doubt) [Compound 73a, N-methyl-5-[rac-(11R)-5-benzyl-12-[4-bromo-3-(trifluoromethyl)benzoyl]-11-methyl-8-oxo-2,3,7,12-tetrazatricyclo[7.4.0.0^2,6]trideca-1(9),3,5-trien-7-yl]pyrazine-2-carboxamide] returned a concentration giving a half-maximal response (EC50) of under 50 nM.

`C[C@H]1Cc2c(n3ncc(Cc4ccccc4)c3n(-c3ccc(-c4cnnn4C)cc3)c2=O)CN1C(=O)c1ccc(Br)c(C(F)(F)F)c1` (stereo in doubt) [Compound 105b, rac-(11S)-5-benzyl-12-[4-bromo-3-(trifluoromethyl)benzoyl]-11-methyl-7-[4-(3-methyltriazol-4-yl)phenyl]-2,3,7,12-tetrazatricyclo[7.4.0.0^2,6]trideca-1(9),3,5-trien-8-one] came in with a concentration giving a half-maximal response (EC50) of 50 to 500 nM.

`Cc1nnc(-c2ccc(-n3c(=O)c4c(n5ncc(CC(C)C)c35)CN(C(=O)c3ccc(Br)c(Cl)c3)[C@@H](C)C4)cc2)[nH]1` (stereo in doubt) [Compound 66b, rac-(11S)-12-(4-bromo-3-chloro-benzoyl)-5-isobutyl-11-methyl-7-[4-(5-methyl-4H-1,2,4-triazol-3-yl)phenyl]-2,3,7,12-tetrazatricyclo[7.4.0.0^2,6]trideca-1(9),3,5-trien-8-one] displayed a half-maximal effective concentration (EC50) of 50 to 500 nM.

For the compound `Cc1nnc(-c2ccc(-n3c(=O)c4c(n5ncc(Cc6ccccc6)c35)CN(C(=O)c3ccc(Br)c(Cl)c3)[C@@H](C)C4)cc2)[nH]1` (stereo in doubt) [Compound 53b, rac-(11S)-5-benzyl-12-(4-bromo-3-chloro-benzoyl)-11-methyl-7-[4-(5-methyl-4H-1,2,4-triazol-3-yl)phenyl]-2,37,12-tetrazatricyclo[7.4.0.0^2,6]trideca-1(9),3,5-trien-8-one], the EC50 is 50 to 500 nM.

For the compound `Cn1cnnc1-c1ccc(-n2c(=O)c3c(n4ncc(Cc5ccccc5)c24)CN(C(=O)c2ccc(Br)c(C(F)(F)F)c2)CC3)cc1` [Compound 25, 5-benzyl-12-[4-bromo-3-(trifluoromethyl)benzoyl]-7-[4-(4-methyl-1,2,4-triazol-3-yl)phenyl]-2,3,7,12-tetrazatricyclo[7.4.0.0^2,6]trideca-1(9),3,5-trien-8-one], the EC50 is under 50 nM.

On to `C#CCc1cnn2c3c(c(=O)n(-c4ccc(C(=O)NC)cc4)c12)C[C@H](C)N(C(=O)c1ccc(Br)c(C(F)(F)F)c1)C3` (stereo in doubt) [Compound 78b, N-methyl-4-[rac-(11S)-12-[4-bromo-3-(trifluoromethyl)benzoyl]-11-methyl-8-oxo-5-prop-2-ynyl-2,3,7,12-tetrazatricyclo[7.4.0.0^2,6]trideca-1 (9),3,5-trien-7-yl]benzamide], for which the 50% effective concentration (EC50) was in the range of 50 to 500 nM.

`C#CCc1cnn2c3c(c(=O)n(-c4ccc(C(=O)NC)cc4)c12)C[C@@H](C)N(C(=O)c1ccc(Br)c(C(F)(F)F)c1)C3` (stereo in doubt) [Compound 78a, N-methyl-4-[rac-(11R)-12-[4-bromo-3-(trifluoromethyl)benzoyl]-11-methyl-8-oxo-5-prop-2-ynyl-2,3,7,12-tetrazatricyclo[7.4.0.0^2,6]trideca-1 (9),3,5-trien-7-yl]benzamide]: the half-maximal effective concentration (EC50) is under 50 nM.

`Cc1nnc(-c2ccc(-n3c(=O)c4c(n5ncc(Cc6ccccc6)c35)CN(C(=O)c3ccc(Br)c(C(F)(F)F)c3)CC4)cc2)n1C` [Compound 32, 5-benzyl-12-[4-bromo-3-(trifluoromethyl)benzoyl]-7-[4-(4,5-dimethyl-1,2,4-triazol-3-yl)phenyl]-2,3,7,12-tetrazatricyclo[7.4.0.0^2,6]trideca-1(9),3,5-trien-8-one]: the EC50 is under 50 nM.
